Structures can show the parent of a compound that is named as a salt.
Assays:
[1] = biological target: T1, h5-HT2A receptor (Homo sapiens, UniProt P28223); test: Functional activity, FLIPR calcium assay, CHO cells expressing h5-HT2A; format: cell-based; details: for Emax: CHO, read-out: h5-HT2A Relative Efficacy (%); for EC50: FLIPR, CHO cells, Fluo 3-AM
T1 construct: expressed in transfected cells; host or cells: CHO cells
Protocol: (§1) The functional activity of compounds of formula (I) was assayed using a Fluorimetric Imaging Plate reader (FLIPR) in the following manner.
(§2) CHO cells expressing either the h5-HT2C or h5-HT2A receptors were counted and plated into standard 96 well microtitre plates before the day of testing to give a confluent monolayer. The following day the cells were dye loaded with the calcium sensitive dye Fluo 3-AM by incubation with serum free culture maintenance media containing plumnic acid and Fluo 3-AM dissolved in DMSO at 37° C. in a CO2 incubator at 95% humidity for approximately 90 minutes. Unincorporated dye was removed by washing with Hanks balanced salt solution containing 20 mM HEPES and 2.5 mM probenecid (the assay buffer) using an automated cell washer to leave a total volume of 100 μl/well.
(§3) The drug (dissolved in 50 μl of assay buffer) was added at a rate of 70 μL/sec to each well of the FLIPR 96 well plate during fluorescence measurements. The measurements are taken at 1 sec intervals and the maximum fluorescent signal was measured (approx 10–15 secs after drug addition) and compared with the response produced by 10 μM 5-HT (defined as 100%) to which it is expressed as a percentage response (relative efficacy). Dose response curves were constructed using Graphpad Prism (Graph Software Inc.).

[2] = biological target: T2, h5-HT2C receptor (Homo sapiens, UniProt P28335); test: Functional activity, FLIPR calcium assay, CHO cells expressing h5-HT2C; format: cell-based; details: for Emax: CHO, read-out: h5-HT2C Relative Efficacy (%); for EC50: FLIPR, CHO cells, Fluo 3-AM
T2 construct: expressed in transfected cells; host or cells: CHO cells
T2 sequence (P28335 33-458): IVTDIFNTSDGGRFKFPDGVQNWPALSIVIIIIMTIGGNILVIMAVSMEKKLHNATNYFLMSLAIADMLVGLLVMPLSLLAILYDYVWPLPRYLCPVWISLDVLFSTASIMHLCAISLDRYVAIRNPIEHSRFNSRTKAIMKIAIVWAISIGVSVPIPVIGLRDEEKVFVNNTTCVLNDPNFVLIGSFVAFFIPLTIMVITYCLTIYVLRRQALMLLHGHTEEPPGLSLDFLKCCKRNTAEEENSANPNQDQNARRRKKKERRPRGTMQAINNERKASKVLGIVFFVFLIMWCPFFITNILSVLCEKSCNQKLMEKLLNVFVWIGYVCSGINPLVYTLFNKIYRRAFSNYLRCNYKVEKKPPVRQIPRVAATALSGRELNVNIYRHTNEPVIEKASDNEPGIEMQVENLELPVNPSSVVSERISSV
Protocol: as §1, §2, §3

[3] = biological target: T3, 5-HT2C receptor (Homo sapiens, UniProt P28335); test: Binding to 5-HT2C receptor, [3H]-5-HT, CHO cell line; details: read-out: Ki (2C)
T3 construct: expressed in transfected cells; host or cells: CHO cell line
T3 sequence (P28335 33-458): T2 sequence (P28335 33-458)
Protocol: (§4) The binding of compounds of formula (1) to serotonin receptors was determined in vitro by standard methods. The preparations were investigated in accordance with the assays given hereinafter.
Method (a): For the binding to the 5-HT2C receptor the 5-HT2C receptors were radiolabeled with [^3H]-5-HT. The affinity of the compounds for 5-HT2C receptors in a CHO cell line was determined according to the procedure of D. Hoyer, G. Engel and H. O. Kalknan, European J. Pharmacol., 1985, 118, 13–23.

[4] = biological target: T4, 5-HT2A receptor (Homo sapiens, UniProt P28223); test: Binding to 5-HT2A receptor, [125I]-DOI, CHO cell line; details: read-out: Ki (2A)
T4 construct: expressed in transfected cells; host or cells: CHO cell line
Protocol: as §4
Method (c): For the binding to the 5-HT2A receptor the 5-HT2A receptors were radiolabeled with [^125I]-DOI. The affinity of the compounds for 5-HT2A receptors in a CHO cell line was determined according to the procedure of D. J. McKenna and S. J. Peroutka, J. Neurosci., 1989, 9/10, 3482–90.

[5] = biological target: T5, human 5-HT2B receptors (Homo sapiens, UniProt P41595); test: Binding to 5-HT2B receptor, [3H]-5-HT, CHO cell line; details: read-out: Ki (2B)
T5 construct: expressed in transfected cells; host or cells: CHO cell line
Protocol: as §4
Method (b): For the binding to the 5-HT2B receptor the 5-HT2B receptors were radiolabeled with [3H]-5-HT. The affinity of the compounds for human 5-HT2B receptors in a CHO cell line was determined according to the procedure of K. Schmuck, C. Ullmer, P. Engels and H. Lubbert, FEBS Lett., 1994, 342, 85–90.

[6] = prolonged period (greater than 6 months); cited from earlier work
[7] = test system: obese male and female subjects; details: subchronic treatment for a 14 day period; cited from earlier work
[8] = test system: female volunteers; details: single injection; cited from earlier work
[9] = test system: rats; details: cited from earlier work
[10] = maximum fluorescent signal relative to 10 μM 5-HT (defined as 100%)

T1 sequence (P28223 whole entry): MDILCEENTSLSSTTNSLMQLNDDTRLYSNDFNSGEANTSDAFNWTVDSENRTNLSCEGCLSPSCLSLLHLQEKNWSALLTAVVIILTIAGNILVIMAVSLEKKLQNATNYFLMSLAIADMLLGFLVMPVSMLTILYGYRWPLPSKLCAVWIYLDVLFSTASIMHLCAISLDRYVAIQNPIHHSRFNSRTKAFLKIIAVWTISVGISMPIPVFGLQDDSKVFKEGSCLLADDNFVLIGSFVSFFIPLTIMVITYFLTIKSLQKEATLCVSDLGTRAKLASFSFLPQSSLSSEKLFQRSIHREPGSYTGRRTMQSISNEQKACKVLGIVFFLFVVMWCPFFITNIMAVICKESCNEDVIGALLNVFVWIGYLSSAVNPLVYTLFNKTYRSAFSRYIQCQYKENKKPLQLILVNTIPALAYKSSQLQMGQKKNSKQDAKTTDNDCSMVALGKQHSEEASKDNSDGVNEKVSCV
T4 sequence (P28223 whole entry): as above
T5 sequence (P41595 whole entry): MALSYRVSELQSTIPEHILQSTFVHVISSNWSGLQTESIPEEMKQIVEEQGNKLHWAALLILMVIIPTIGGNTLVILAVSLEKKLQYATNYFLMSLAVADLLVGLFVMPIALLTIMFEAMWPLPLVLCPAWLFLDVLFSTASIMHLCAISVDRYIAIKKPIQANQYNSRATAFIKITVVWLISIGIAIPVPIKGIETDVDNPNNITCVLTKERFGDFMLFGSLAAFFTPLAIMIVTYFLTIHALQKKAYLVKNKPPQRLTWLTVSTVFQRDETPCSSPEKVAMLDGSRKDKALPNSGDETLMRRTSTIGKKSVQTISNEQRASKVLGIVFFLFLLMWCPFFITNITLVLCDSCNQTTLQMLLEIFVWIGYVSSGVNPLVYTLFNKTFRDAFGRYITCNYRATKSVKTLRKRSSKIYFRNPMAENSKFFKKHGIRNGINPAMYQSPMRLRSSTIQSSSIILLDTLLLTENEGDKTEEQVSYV

## C[C@H](N)CN1CCc2ccc3c(c21)CCO3 (as salt: fumarate) [Compound 3, (S)-1-(2,3,7,8-Tetrahydrofuro[2,3-g]indol-1-yl)-2-propylamine fumarate]
other
  melting point: 215.5 to 217 °C (dec.)

## C[C@H](N)CN1CCc2ccc3c(c21)CCCO3 (as salt: fumarate) [Compound 4, (S)-1-(2,3,7,8-Tetrahydro-9H-pyrano[2,3-g]indol-1-yl)-2-propylamine fumarate]
other
  melting point: 168 to 169 °C

## C[C@H](N)CN1CCc2ccc3c(c21)CCS3 (as salt: fumarate) [Compound 5, (S)-1-(2,3,7,8-Tetrahydrothieno[2,3-g]indol-1-yl)-2-propylamine fumarate]
other
  melting point: 188 to 189.5 °C (dec.)

## C[C@H](N)CN1CCc2ccc3c(c21)OCCO3 (as salt: fumarate) [Compound 6, (S)-1-(2,3,7,8-Tetrahydro-9H-1,4-dioxino[2,3-g]indol-9-yl)2-propylamine fumarate]
other
  melting point: 173 to 174 °C (dec.)

## C[C@H](N)CN1CCc2ccc3c(c21)CCCC3 (as salt: fumarate) [Compound 7, (S)-1-(2,3,6,7,8,9-Hexabydro-1H-benz[g]indol-1-yl)]-2-propylamine, fumarate]
other
  melting point: 178 to 182 °C

## C[C@H](N)CN1CCc2ccc3c(c21)CCC3 (as salt: fumarate) [Compound 8, (S)-1-[1-(1,2,3,6,7,8-Hexabydrocyclopent[g]indolyl)]-2-propylamine fumarate]
other
  melting point: 182 °C (dec.)

## CCC1CN(CC(C)N)c2c1ccc1c2CCO1 (single isomer, unassigned) [Compound 9, [2S3′(R or S)]-1-(3-Ethyl-2,3,7,8-tetrahydrofuro[2,3-g]indol-1-yl)-2-propylamine fumarate]
[1]; [10]
  Emax: 22%
[1]
  EC50: 1140 nM
[2]; [10]
  Emax: 74%
[2]
  EC50: 50 nM

## CCC1CN(CC(C)N)c2c1ccc1c2CCO1 (single isomer, unassigned) [Compound 10, [2S,3′(S or R)]-1-(3-Ethyl-2,3,7,8-tetrahydrofuro[2,3-g]indol-1-yl)-2-propylamine fumarate]
[1]
  EC50: 403 nM
[1]; [10]
  h5-HT2A Relative Efficacy (%): 15%
[2]
  EC50: 51 nM
[2]; [10]
  h5-HT2C Relative Efficacy (%): 67%

## C[C@H](N)CN1CCc2ccc3ccccc3c21 [Compound 1, (S)-1-(Benz[g]indolin-1-yl)-2-propylamine hemi-fumarate]
[1]; [10]
  Emax: 51%
[1]
  EC50: 1370 nM
[3]
  Ki: 107 nM
[4]
  Ki: 173 nM
[5]
  Ki: 39 nM
[2]; [10]
  Emax: 79%
[2]
  EC50: 158 nM

## C[C@@H](N)CN1CCc2ccc3ccccc3c21 [Compound 2, (R)-1-(Benz[g]indolin-1-yl)-2-propylamine hemi-fumarate]
[1]
  EC50: > 10000 nM
[2]; [10]
  Emax: 44%
[2]
  EC50: 1720 nM

## C[C@H](N)CN1CCc2ccc3c(c21)CCO3 [Compound 3, (S)-1-(2,3,7,8-Tetrahydrofuro[2,3-g]indol-1-yl)-2-propylamine fumarate]
[1]; [10]
  Emax: 81%
[1]
  EC50: 138 nM
[2]; [10]
  Emax: 94%
[2]
  EC50: 6 nM

## C[C@H](N)CN1CCc2ccc3c(c21)CCCO3 [Compound 4, (S)-1-(2,3,7,8-Tetrahydro-9H-pyrano[2,3-g]indol-1-yl)-2-propylamine fumarate]
[1]; [10]
  Emax: 66%
[1]
  EC50: 505 nM
[2]; [10]
  Emax: 89%
[2]
  EC50: 47 nM

## C[C@H](N)CN1CCc2ccc3c(c21)CCS3 [Compound 5, (S)-1-(2,3,7,8-Tetrahydrothieno[2,3-g]indol-1-yl)-2-propylamine fumarate]
[1]; [10]
  Emax: 77%
[1]
  EC50: 48 nM
[2]; [10]
  Emax: 86%
[2]
  EC50: 0.4 nM

## C[C@H](N)CN1CCc2ccc3c(c21)OCCO3 [Compound 6, (S)-1-(2,3,7,8-Tetrahydro-9H-1,4-dioxino[2,3-g]indol-9-yl)2-propylamine fumarate]
[1]; [10]
  Emax: 71%
[1]
  EC50: 312 nM
[3]
  Ki: 70 nM
[4]
  Ki: 223 nM
[5]
  Ki: 218 nM
[2]; [10]
  Emax: 90%
[2]
  EC50: 47 nM

## C[C@H](N)CN1CCc2ccc3c(c21)CCCC3 [Compound 7, (S)-1-(2,3,6,7,8,9-Hexabydro-1H-benz[g]indol-1-yl)]-2-propylamine, fumarate]
[1]; [10]
  Emax: 14%
[1]
  EC50: 1830 nM
[2]; [10]
  Emax: 68%
[2]
  EC50: 440 nM

## C[C@H](N)CN1CCc2ccc3c(c21)CCC3 [Compound 8, (S)-1-[1-(1,2,3,6,7,8-Hexabydrocyclopent[g]indolyl)]-2-propylamine fumarate]
[1]; [10]
  Emax: 0%
[1]
  EC50: ≥ 10000 nM
[2]; [10]
  Emax: 69%
[2]
  EC50: 217 nM

## CCN[C@@H](C)Cc1cccc(C(F)(F)F)c1 [dexfenfluramine]
[6]
  food intake and body weight: decrease food intake and body weight

## CCNC(C)Cc1cccc(C(F)(F)F)c1 (stereo not drawn) [fenfluramine]
[6]
  food intake and body weight: decrease food intake and body weight

## Clc1cccc(N2CCNCC2)c1 [mCPP, m-chlorophenylpiperazine]
[7]
  appetite and body weight of obese subjects: decreased the appetite and body weight
[8]
  food intake in female volunteers: decreased food intake
[9]; rat, in vivo
  appearance of the behavioural satiety sequence: accelerate the appearance of the behavioural satiety sequence
[9]; rats
  food intake in rats: reduce food intake

Source: patent US6962939B1, “Condensed indoline derivatives and their use as 5HT, in particular 5HT2C, receptor ligands” (Vernalis Research Limited, priority 1999, dated 2005)
